Measurements taken from ChEMBL document CHEMBL5532742, “Design and Synthesis of the Linezolid Bioisosteres to Resolve the Serotonergic Toxicity Associated with Linezolid” (ACS Med Chem Lett, 2024).
≈ marks a conversion by molar mass, not a printed value. Where “and” joins values, the source holds several entries; their conditions need not be identical. Equal values may be shown once.

Assays:
[1] = target: T1, MAO-B (Homo sapiens, UniProt P27338); assay: Potency index, ratio of test compound IC50 to linezolid IC50 for inhibition of human recombinant MAO-B using benzylamine as substrate; format: toxicity; settings: probe benzylamine, read-out: Ratio IC50
T1 sequence (P27338 whole entry): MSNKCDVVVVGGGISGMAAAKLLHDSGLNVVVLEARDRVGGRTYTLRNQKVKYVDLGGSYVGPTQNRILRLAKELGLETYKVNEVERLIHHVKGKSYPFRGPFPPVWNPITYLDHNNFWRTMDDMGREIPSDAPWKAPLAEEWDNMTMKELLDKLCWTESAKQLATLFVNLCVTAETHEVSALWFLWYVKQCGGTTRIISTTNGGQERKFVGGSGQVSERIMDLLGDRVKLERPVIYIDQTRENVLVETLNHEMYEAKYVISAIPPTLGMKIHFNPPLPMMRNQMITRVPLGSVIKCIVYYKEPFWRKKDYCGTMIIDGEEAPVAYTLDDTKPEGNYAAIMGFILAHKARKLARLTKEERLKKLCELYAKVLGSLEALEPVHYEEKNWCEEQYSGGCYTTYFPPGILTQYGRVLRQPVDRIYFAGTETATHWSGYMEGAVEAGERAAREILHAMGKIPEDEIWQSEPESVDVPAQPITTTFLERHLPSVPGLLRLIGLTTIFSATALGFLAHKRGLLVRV

[2] = system: Mycobacterium tuberculosis; assay: Antimycobacterial activity against Mycobacterium tuberculosis H37Rv assessed as prevention of bacterial growth measured after 7 days by alamar blue assay; format: functional; settings: 168 h, time 7 day
[3] = system: Mycobacterium tuberculosis; assay: Antimycobacterial activity against Mycobacterium tuberculosis clinical isolate without mutation incubated for 1 week by resazurin dye based fluorescence analysis; format: functional; settings: time 1 weeks
[4] = target: T2, Amine oxidase [flavin-containing] B (Homo sapiens, UniProt P27338); assay: Inhibition of human recombinant MAO-B using benzylamine as substrate; format: toxicity
T2 sequence (P27338 whole entry): T1 sequence (P27338 whole entry)

[5] = target: T3, Amine oxidase [flavin-containing] A (Homo sapiens, UniProt P21397); assay: Inhibition of human recombinant MAO-A using kynuramine as substrate; format: toxicity
T3 sequence (P21397 whole entry): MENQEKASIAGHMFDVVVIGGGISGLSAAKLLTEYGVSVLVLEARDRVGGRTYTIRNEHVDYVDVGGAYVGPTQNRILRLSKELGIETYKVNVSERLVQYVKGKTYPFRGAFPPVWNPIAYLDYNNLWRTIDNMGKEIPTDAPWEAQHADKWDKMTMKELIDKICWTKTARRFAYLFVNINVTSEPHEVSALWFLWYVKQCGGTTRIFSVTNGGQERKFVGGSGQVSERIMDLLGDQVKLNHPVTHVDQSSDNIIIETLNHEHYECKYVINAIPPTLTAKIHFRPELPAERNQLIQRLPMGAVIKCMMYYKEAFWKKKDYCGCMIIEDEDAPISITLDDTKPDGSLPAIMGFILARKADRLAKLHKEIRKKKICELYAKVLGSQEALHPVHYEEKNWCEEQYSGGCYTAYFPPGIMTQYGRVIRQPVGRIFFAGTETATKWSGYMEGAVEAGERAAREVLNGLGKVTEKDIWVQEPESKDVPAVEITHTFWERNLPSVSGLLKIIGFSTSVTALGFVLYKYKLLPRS

[6] = target: T2, Amine oxidase [flavin-containing] B; assay: Inhibition of human recombinant MAO-B using tyramine as substrate by ELISA; format: toxicity
[7] = target: T3, Amine oxidase [flavin-containing] A; assay: Inhibition of human recombinant MAO-A using tyramine as substrate by ELISA; format: toxicity
[8] = system: Staphylococcus aureus; assay: Antibacterial activity against Staphylococcus aureus ATCC 25923; format: functional

Compound | selectivity ratio [1] | MIC [2] | MIC50 [3] | IC50 [4] | IC50 [5] | IC50 [6] | IC50 [7] | MIC [8]
CCS(=O)(=O)NC[C@H]1CN(c2ccc(N3CCOCC3)c(F)c2)C(=O)O1 | 64.6 | 2.01 µM (≈ 0.779 µg/mL) | 0.74 µM (≈ 0.287 µg/mL) | > 40 µM | > 40 µM | – | – | –
O=C(NC[C@H]1CN(c2ccc(N3CCOCC3)c(F)c2)C(=O)O1)C1CC1 | – | 2.08 µM (≈ 0.756 µg/mL) | 1.11 µM (≈ 0.403 µg/mL) | 30.3 µM | > 40 µM | – | – | –
CCCCS(=O)(=O)NC[C@H]1CN(c2ccc(N3CCOCC3)c(F)c2)C(=O)O1 | – | 1.87 µM and > 25 µg/mL | – | 25.4 µM | > 40 µM | – | – | –
CC(=O)NC[C@H]1CN(c2ccc(N3CCOCC3)c(F)c2)C(=O)O1 [LINEZOLID] | – | 2.31 µM (≈ 0.779 µg/mL) | 0.34 µM (≈ 0.115 µg/mL) | – | – | – | – | –
O=C1O[C@@H](CNS(=O)(=O)C2CC2)CN1c1ccc(N2CCOCC2)c(F)c1 | – | 1.95 µM and > 25 µg/mL | – | 11.4 µM | > 40 µM | – | – | –
CS(=O)(=O)NC[C@H]1CN(c2ccc(N3CCOCC3)c(F)c2)C(=O)O1 | – | 2.14 µM (≈ 0.799 µg/mL) | 1.11 µM (≈ 0.414 µg/mL) | 2.95 µM | > 40 µM | – | – | –
O=C(NC[C@H]1CN(c2ccc(N3CCOCC3)c(F)c2)C(=O)O1)c1cccs1 | – | 1.92 µM (≈ 0.778 µg/mL) | 3.12 µM (≈ 1.27 µg/mL) | 33.1 µM | > 40 µM | – | – | –
O=C1O[C@@H](CNS(=O)(=O)c2cccs2)CN1c1ccc(N2CCOCC2)c(F)c1 | – | 1.76 µM (≈ 0.777 µg/mL) | 4.01 µM (≈ 1.77 µg/mL) | 27.3 µM | > 40 µM | – | – | –
CC(C)(C)c1ccc(S(=O)(=O)NC[C@H]2CN(c3ccc(N4CCOCC4)c(F)c3)C(=O)O2)cc1 | – | 1.58 µM and > 25 µg/mL | – | 13.2 µM | 19.3 µM | – | – | –
NNC(=O)c1ccncc1 [ISONIAZID] | – | – | <0.2 µM | – | – | – | – | –
CO[C@H]1/C=C/O[C@@]2(C)Oc3c(C)c(O)c4c(O)c(c(/C=N/N5CCN(C)CC5)c(O)c4c3C2=O)NC(=O)/C(C)=C\C=C\[C@H](C)[C@H](O)[C@@H](C)[C@@H](O)[C@@H](C)[C@H](OC(C)=O)[C@@H]1C [RIFAMPIN] | – | – | <0.04 µM | – | – | – | – | –
O=C1O[C@H](Cn2ccnn2)CN1c1ccc(N2CCOCC2)c(F)c1 | – | – | – | – | – | 15.4 µM | 31.9 µM | 1 µg/mL (≈ 2.88 µM)
